Laboratory results reported in the kinase profiling compilation of Christmann-Franck et al. (2016).

How the values were obtained:
Experiment in all cases: KINOMEscan competition binding
Conditions in all cases: compound 10.0 µM
CDK5 (human) = CDK5 (human) (UniProt Q00535)
LIMK1 (human) = LIMK1 (human) (UniProt P53667)
RPS6KA4 KD1 (human) = RPS6KA4 KD1 (human) (UniProt O75676)
CAMKK2 (human) = CAMKK2 (human) (UniProt Q96RR4)
MELK (human) = MELK (human) (UniProt Q14680)
MAPK4 (human) = MAPK4 (human) (UniProt P31152)
MAPK4 (human), sequence (P31152 whole entry, looked up): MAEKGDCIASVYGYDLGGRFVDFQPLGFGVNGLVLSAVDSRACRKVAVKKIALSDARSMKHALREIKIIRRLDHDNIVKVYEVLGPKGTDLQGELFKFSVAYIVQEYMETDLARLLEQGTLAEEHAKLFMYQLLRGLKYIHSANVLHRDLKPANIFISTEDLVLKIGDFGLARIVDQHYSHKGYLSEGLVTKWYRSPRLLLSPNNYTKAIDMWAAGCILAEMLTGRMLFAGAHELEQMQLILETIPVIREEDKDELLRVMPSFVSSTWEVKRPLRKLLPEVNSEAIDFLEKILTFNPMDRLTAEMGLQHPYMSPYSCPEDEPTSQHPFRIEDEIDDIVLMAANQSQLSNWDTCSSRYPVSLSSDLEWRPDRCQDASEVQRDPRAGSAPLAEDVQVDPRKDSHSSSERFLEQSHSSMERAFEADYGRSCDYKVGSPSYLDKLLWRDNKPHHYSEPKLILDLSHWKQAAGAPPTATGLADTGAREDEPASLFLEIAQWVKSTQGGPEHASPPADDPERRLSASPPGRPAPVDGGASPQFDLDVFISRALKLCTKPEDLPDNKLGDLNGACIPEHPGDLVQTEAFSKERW

PIM1 (human) = PIM1 (human) (UniProt P11309)
PIM1 (human), sequence (P11309 whole entry, looked up): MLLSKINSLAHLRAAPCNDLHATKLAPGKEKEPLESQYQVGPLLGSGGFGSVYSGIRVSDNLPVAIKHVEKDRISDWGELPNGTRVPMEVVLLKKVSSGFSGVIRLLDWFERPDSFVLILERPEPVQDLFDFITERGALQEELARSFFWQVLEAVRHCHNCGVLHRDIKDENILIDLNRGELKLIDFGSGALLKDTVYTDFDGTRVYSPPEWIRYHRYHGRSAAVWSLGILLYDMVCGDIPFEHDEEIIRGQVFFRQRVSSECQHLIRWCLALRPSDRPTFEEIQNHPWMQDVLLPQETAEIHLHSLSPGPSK

TTK (human) = TTK (human) (UniProt P33981)
TTK (human), sequence (P33981 whole entry, looked up): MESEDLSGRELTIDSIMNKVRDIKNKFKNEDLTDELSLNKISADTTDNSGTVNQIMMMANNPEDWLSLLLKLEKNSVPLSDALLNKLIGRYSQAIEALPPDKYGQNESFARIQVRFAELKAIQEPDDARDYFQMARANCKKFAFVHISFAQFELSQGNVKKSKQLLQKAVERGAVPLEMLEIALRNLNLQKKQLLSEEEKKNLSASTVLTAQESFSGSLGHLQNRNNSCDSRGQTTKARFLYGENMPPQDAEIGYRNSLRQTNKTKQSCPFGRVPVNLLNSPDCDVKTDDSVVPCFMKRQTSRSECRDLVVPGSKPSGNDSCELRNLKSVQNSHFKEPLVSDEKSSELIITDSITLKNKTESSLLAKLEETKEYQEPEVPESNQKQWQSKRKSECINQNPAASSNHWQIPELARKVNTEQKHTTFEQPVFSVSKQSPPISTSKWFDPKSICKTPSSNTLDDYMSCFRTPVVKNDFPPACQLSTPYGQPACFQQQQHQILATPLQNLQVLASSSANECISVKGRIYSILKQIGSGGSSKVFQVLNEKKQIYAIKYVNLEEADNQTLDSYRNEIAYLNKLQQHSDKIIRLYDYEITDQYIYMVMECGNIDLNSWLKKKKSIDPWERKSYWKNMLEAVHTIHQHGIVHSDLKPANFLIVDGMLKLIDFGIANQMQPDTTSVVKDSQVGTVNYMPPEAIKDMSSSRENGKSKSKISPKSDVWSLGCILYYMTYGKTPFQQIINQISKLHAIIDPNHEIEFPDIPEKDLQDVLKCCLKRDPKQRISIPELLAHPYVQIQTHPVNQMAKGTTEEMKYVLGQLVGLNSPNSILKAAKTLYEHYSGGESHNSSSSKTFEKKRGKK

FLT3 (human) = FLT3 (human) (UniProt P36888)
PIK3CB (human) = PIK3CB (human) (UniProt P42338)
NIM1 (human) = NIM1 (human) (UniProt Q8IY84)
NEK4 (human) = NEK4 (human) (UniProt P51957)
ERN1 (human) = ERN1 (human) (UniProt O75460)
WEE1 (human) = WEE1 (human) (UniProt P30291)
MAP3K7 (human) = MAP3K7 (human) (UniProt O43318)
ITK (human) = ITK (human) (UniProt Q08881)
[1] = system: FLT3 (human), P36888 [D835H]
CDK7 (human) = CDK7 (human) (UniProt P50613)
RIPK4 (human) = RIPK4 (human) (UniProt P57078)
AXL (human) = AXL (human) (UniProt P30530)
MARK4 (human) = MARK4 (human) (UniProt Q96L34)
DYRK2 (human) = DYRK2 (human) (UniProt Q92630)
MAPK8 (human) = MAPK8 (human) (UniProt P45983)
TNK2 (human) = TNK2 (human) (UniProt Q07912)
TNK2 (human), sequence (Q07912 whole entry, looked up): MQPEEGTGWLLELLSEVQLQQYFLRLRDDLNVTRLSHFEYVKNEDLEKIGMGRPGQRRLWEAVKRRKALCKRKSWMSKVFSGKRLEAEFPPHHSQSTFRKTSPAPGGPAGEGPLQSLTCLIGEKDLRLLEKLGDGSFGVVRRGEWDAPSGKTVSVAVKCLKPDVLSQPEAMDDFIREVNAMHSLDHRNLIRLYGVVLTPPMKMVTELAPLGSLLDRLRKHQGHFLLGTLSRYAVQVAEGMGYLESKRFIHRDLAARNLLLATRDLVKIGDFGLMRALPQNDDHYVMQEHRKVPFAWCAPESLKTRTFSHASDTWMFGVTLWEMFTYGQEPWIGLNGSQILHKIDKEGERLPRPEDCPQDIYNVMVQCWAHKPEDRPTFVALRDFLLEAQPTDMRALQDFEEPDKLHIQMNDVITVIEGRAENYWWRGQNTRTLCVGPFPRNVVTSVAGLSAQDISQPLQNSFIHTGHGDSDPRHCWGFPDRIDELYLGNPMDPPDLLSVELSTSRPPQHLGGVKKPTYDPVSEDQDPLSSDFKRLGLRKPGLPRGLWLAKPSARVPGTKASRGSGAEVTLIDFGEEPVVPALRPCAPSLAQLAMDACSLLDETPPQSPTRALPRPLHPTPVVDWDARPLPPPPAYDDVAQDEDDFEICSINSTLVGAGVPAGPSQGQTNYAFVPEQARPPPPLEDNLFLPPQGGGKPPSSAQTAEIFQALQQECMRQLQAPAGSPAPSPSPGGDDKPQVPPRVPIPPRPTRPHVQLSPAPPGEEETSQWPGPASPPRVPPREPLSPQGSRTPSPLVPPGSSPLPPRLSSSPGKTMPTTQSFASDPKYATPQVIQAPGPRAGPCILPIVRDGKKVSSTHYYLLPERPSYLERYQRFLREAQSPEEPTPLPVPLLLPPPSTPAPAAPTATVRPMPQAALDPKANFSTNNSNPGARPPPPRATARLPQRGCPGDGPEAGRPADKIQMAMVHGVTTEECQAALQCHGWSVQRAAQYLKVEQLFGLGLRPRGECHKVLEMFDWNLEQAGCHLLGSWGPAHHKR

CDC42BPA (human) = CDC42BPA (human) (UniProt Q5VT25)
CDK2 (human) = CDK2 (human) (UniProt P24941)
BRSK2 (human) = BRSK2 (human) (UniProt Q8IWQ3)
MAPK3 (human) = MAPK3 (human) (UniProt P27361)
GRK4 (human) = GRK4 (human) (UniProt P32298)
GRK4 (human), sequence (P32298 whole entry, looked up): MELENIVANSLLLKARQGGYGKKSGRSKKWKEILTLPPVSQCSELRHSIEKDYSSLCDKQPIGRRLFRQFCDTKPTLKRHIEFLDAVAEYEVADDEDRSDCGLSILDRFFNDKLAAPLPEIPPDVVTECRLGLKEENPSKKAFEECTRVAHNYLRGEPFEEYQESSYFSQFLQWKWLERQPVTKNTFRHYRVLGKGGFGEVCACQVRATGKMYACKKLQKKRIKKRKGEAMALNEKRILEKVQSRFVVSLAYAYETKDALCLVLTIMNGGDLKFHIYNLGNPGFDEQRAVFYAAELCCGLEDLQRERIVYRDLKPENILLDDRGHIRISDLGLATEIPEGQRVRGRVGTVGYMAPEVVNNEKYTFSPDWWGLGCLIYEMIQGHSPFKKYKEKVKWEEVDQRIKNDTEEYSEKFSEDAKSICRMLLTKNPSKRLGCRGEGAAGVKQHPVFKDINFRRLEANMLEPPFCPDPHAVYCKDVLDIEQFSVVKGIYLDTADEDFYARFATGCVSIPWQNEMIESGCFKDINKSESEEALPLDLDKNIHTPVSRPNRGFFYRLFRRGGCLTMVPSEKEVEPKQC

EPHA1 (human) = EPHA1 (human) (UniProt P21709)
EPHB4 (human) = EPHB4 (human) (UniProt P54760)
AKT3 (human) = AKT3 (human) (UniProt Q9Y243)
IKBKE (human) = IKBKE (human) (UniProt Q14164)
DDR1 (human) = DDR1 (human) (UniProt Q08345)
BTK (human) = BTK (human) (UniProt Q06187)
PLK4 (human) = PLK4 (human) (UniProt O00444)
[2] = system: RET (human), P07949 [M918T]
PRKG1 (human) = PRKG1 (human) (UniProt Q13976)
ZAP70 (human) = ZAP70 (human) (UniProt P43403)
ZAP70 (human), sequence (P43403 whole entry, looked up): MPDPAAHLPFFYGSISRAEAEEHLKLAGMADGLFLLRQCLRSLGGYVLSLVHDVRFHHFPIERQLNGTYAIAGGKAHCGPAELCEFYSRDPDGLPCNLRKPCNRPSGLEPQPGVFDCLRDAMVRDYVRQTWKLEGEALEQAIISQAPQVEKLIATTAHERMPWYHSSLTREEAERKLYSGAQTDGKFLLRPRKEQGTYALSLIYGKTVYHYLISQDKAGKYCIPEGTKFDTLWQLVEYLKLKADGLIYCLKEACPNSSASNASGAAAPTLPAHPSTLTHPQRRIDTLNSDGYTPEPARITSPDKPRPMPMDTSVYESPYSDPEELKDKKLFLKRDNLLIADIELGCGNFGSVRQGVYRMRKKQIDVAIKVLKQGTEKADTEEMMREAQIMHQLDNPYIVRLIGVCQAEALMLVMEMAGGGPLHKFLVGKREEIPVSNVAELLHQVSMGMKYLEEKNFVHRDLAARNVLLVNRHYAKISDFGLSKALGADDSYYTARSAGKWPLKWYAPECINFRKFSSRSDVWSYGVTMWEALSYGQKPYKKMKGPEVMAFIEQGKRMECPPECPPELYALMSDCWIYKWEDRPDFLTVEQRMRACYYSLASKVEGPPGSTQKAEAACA

LCK (human) = LCK (human) (UniProt P06239)
LCK (human), sequence (P06239 whole entry, looked up): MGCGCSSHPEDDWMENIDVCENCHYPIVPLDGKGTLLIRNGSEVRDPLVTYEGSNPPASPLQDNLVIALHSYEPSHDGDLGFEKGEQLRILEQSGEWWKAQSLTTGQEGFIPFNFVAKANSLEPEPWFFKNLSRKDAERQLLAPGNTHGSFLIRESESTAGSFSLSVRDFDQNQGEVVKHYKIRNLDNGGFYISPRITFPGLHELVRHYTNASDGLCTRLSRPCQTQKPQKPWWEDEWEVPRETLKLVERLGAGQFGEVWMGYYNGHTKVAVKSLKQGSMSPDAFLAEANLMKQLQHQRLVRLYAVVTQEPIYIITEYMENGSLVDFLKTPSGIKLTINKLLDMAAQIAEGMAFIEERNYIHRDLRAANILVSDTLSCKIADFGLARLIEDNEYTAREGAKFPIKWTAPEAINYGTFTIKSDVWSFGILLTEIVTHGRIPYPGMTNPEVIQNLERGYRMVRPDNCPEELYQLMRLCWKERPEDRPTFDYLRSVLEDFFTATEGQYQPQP

NEK11 (human) = NEK11 (human) (UniProt Q8NG66)

CDK5 (human), sequence (Q00535 whole entry, looked up): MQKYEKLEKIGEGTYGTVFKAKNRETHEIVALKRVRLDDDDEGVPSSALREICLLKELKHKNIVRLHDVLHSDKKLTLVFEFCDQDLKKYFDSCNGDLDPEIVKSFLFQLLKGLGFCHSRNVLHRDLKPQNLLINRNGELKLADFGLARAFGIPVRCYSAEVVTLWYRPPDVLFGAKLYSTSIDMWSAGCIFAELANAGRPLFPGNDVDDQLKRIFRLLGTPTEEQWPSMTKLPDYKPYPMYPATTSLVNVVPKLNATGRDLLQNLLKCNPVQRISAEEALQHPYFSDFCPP

Q: What does the source list for `CCN1CCN(C(=O)Cc2ccc(Nc3ncc(F)c(Nc4ccc(C(=O)Nc5ccccc5Cl)cc4)n3)cc2)CC1`?
A: kinase still bound, per cent of control (CDK5 (human)): 79%; kinase still bound, per cent of control (LIMK1 (human)): 9.8%; kinase still bound, per cent of control (RPS6KA4 KD1 (human)): 100%; kinase still bound, per cent of control (CAMKK2 (human)): 48%; kinase still bound, per cent of control (MELK (human)): 55%; kinase still bound, per cent of control (MAPK4 (human)): 82%; kinase still bound, per cent of control (PIM1 (human)): 60%; kinase still bound, per cent of control (TTK (human)): 18%; kinase still bound, per cent of control (FLT3 (human)): 0.7%; kinase still bound, per cent of control (PIK3CB (human)): 83%; kinase still bound, per cent of control (NIM1 (human)): 79%; kinase still bound, per cent of control (NEK4 (human)): 63%; kinase still bound, per cent of control (ERN1 (human)): 91%; kinase still bound, per cent of control (WEE1 (human)): 31%; kinase still bound, per cent of control (MAP3K7 (human)): 2.9%; kinase still bound, per cent of control (ITK (human)): 52%; kinase still bound, per cent of control [1]: 0.6%; kinase still bound, per cent of control (CDK7 (human)): 22%; kinase still bound, per cent of control (RIPK4 (human)): 31%; kinase still bound, per cent of control (AXL (human)): 2.1%; kinase still bound, per cent of control (MARK4 (human)): 17%; kinase still bound, per cent of control (DYRK2 (human)): 18%; kinase still bound, per cent of control (MAPK8 (human)): 1.7%; kinase still bound, per cent of control (TNK2 (human)): 10%; kinase still bound, per cent of control (CDC42BPA (human)): 100%; kinase still bound, per cent of control (CDK2 (human)): 80%; kinase still bound, per cent of control (BRSK2 (human)): 82%; kinase still bound, per cent of control (MAPK3 (human)): 100%; kinase still bound, per cent of control (GRK4 (human)): 8.8%; kinase still bound, per cent of control (EPHA1 (human)): 27%; kinase still bound, per cent of control (EPHB4 (human)): 76%; kinase still bound, per cent of control (AKT3 (human)): 100%; kinase still bound, per cent of control (IKBKE (human)): 100%; kinase still bound, per cent of control (DDR1 (human)): 22%; kinase still bound, per cent of control (BTK (human)): 27%; kinase still bound, per cent of control (PLK4 (human)): 0.25%; kinase still bound, per cent of control [2]: 0.55%; kinase still bound, per cent of control (PRKG1 (human)): 100%; kinase still bound, per cent of control (ZAP70 (human)): 100%; kinase still bound, per cent of control (LCK (human)): 6.6%; kinase still bound, per cent of control (NEK11 (human)): 100%

Q: Which kinase still bound, per cent of control (CDK5 (human)) does the source give for `COc1cc2ncnc(-n3nc(-c4ccccn4)nc3N)c2cc1OC` here?
A: 100%

Q: And the kinase still bound, per cent of control (LIMK1 (human))?
A: 22%

Q: What about the kinase still bound, per cent of control (RPS6KA4 KD1 (human)) of the same molecule?
A: 9.9%

Q: And the kinase still bound, per cent of control (CAMKK2 (human))?
A: 9.1%

Q: What about the kinase still bound, per cent of control (MELK (human)) of the same molecule?
A: 9.2%

Q: And the kinase still bound, per cent of control (MAPK4 (human))?
A: 85%

Q: What about the kinase still bound, per cent of control (PIM1 (human)) of the same molecule?
A: 15%

Q: And the kinase still bound, per cent of control (TTK (human))?
A: 20%

Q: What about the kinase still bound, per cent of control (FLT3 (human)) of the same molecule?
A: 20%

Q: And the kinase still bound, per cent of control (PIK3CB (human))?
A: 5%

Q: And the kinase still bound, per cent of control (NIM1 (human))?
A: 89%

Q: And the kinase still bound, per cent of control (NEK4 (human))?
A: 41%

Q: And the kinase still bound, per cent of control (ERN1 (human))?
A: 46%

Q: And the kinase still bound, per cent of control (WEE1 (human))?
A: 80%

Q: And the kinase still bound, per cent of control (MAP3K7 (human))?
A: 15%

Q: What about the kinase still bound, per cent of control (ITK (human)) of the same molecule?
A: 100%

Q: And the kinase still bound, per cent of control [1]?
A: 3.2%

Q: And the kinase still bound, per cent of control (CDK7 (human))?
A: 5.4%

Q: And the kinase still bound, per cent of control (RIPK4 (human))?
A: 12%

Q: What about the kinase still bound, per cent of control (AXL (human)) of the same molecule?
A: 6%

Q: And the kinase still bound, per cent of control (MARK4 (human))?
A: 75%

Q: And the kinase still bound, per cent of control (DYRK2 (human))?
A: 0.25%

Q: What about the kinase still bound, per cent of control (MAPK8 (human)) of the same molecule?
A: 12%

Q: What about the kinase still bound, per cent of control (TNK2 (human)) of the same molecule?
A: 54%

Q: And the kinase still bound, per cent of control (CDC42BPA (human))?
A: 99%

Q: And the kinase still bound, per cent of control (CDK2 (human))?
A: 50%

Q: What about the kinase still bound, per cent of control (BRSK2 (human)) of the same molecule?
A: 14%

Q: And the kinase still bound, per cent of control (MAPK3 (human))?
A: 67%

Q: And the kinase still bound, per cent of control (GRK4 (human))?
A: 39%

Q: And the kinase still bound, per cent of control (EPHA1 (human))?
A: 14%

Q: What about the kinase still bound, per cent of control (EPHB4 (human)) of the same molecule?
A: 22%

Q: What about the kinase still bound, per cent of control (AKT3 (human)) of the same molecule?
A: 100%

Q: And the kinase still bound, per cent of control (IKBKE (human))?
A: 9.6%

Q: And the kinase still bound, per cent of control (DDR1 (human))?
A: 88%

Q: And the kinase still bound, per cent of control (BTK (human))?
A: 51%

Q: What about the kinase still bound, per cent of control (PLK4 (human)) of the same molecule?
A: 0.2%

Q: And the kinase still bound, per cent of control [2]?
A: 14%

Q: What about the kinase still bound, per cent of control (PRKG1 (human)) of the same molecule?
A: 100%

Q: What about the kinase still bound, per cent of control (ZAP70 (human)) of the same molecule?
A: 32%

Q: What about the kinase still bound, per cent of control (LCK (human)) of the same molecule?
A: 5.2%

Q: And the kinase still bound, per cent of control (NEK11 (human))?
A: 80%
